The target in data set [1] is T1, NS2B(H)-NS3pro (DENV-2 NS2B-NS3 protease) (Dengue virus 2 Thailand/NGS-C/1944, UniProt P14340).
T1 sequence (P14340 1394-1433 limits assumed): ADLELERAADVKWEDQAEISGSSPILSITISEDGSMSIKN
T1 sequence (P14340 1476-1660 limits assumed): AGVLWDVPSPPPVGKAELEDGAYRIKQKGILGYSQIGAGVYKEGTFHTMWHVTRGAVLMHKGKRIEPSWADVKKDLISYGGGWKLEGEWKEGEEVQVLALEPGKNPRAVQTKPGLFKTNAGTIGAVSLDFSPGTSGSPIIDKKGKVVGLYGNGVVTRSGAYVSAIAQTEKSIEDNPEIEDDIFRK
Description: biochemical. The conditions noted are these: read-out: % inhibition.

Data set [2] deals with T1, NS2B(H)-NS3pro (DENV-2 NS2B-NS3 protease). Description: biochemical. To be noted: read-out: % inhibition. This is another data set of the same source.
Data set [3] has as its system DENV-2. Description: microbe, parasite or virus in culture. The conditions noted are these: Dengue virus, DENV2, Vero, 48 h, read-out: % inhibition.
In data set [4] the target is T1, NS2B(H)-NS3pro (DENV-2 NS2B-NS3 protease). Briefly: fluorometric protease assay, AMC substrate. The data set is classed as biochemical. To be noted: read-out: % inhibition at 50 μM.
Data set [5] is described as follows: in vitro. The arrangement: species or system DENV2proHeLa (HeLa). To be noted: human, denv2prohela cells.
For data set [6], the target named is T2, DENV2proHeLa NS2B-NS3 protease (Dengue virus 2 Thailand/16681/84, UniProt P29990). Briefly: cell-based. The arrangement: species or system DENV2proHeLa (HeLa). The conditions noted are these: HeLa, read-out: % inhibition.
For data set [7], the target named is T1, NS2B(H)-NS3pro (DENV-2 NS2B-NS3 protease). The conditions noted are these: read-out: IC50 (C7.5-HEPES AMC); AMC substrate, HEPES pH 7.5, CHAPS; inhibitor.
Data set [8] has as its target T2, DENV2proHeLa NS2B-NS3 protease. Description: cell-based. On the set-up: species or system DENV2proHeLa (HeLa).
The target of data set [9] is T1, NS2B(H)-NS3pro (DENV-2 NS2B-NS3 protease). Description: biochemical. To be noted: read-out: % inhibition. The source holds these as a separate data set.
In data set [10] the target is T2, DENV2proHeLa NS2B-NS3 protease. Briefly: cell-based. On the set-up: species or system DENV2proHeLa (HeLa). The source holds these as a separate data set.
Data set [11] deals with T1, NS2B(H)-NS3pro (DENV-2 NS2B-NS3 protease). To be noted: read-out: IC50 (C7.5-HEPES AMC); AMC substrate, HEPES pH 7.5, CHAPS; inhibitor. This is another data set of the same source.
Data set [12] can be described thus: in vitro. On the set-up: species or system DENV2proHeLa (HeLa). The conditions noted are these: human, denv2prohela cells. This is another data set of the same source.
The target in data set [13] is T2, DENV2proHeLa NS2B-NS3 protease. Briefly: cell-based. On the set-up: species or system DENV2proHeLa (HeLa). To be noted: HeLa, read-out: % inhibition. The source holds these as a separate data set.
Data set [14] has as its target T1, NS2B(H)-NS3pro (DENV-2 NS2B-NS3 protease). Description: biochemical. The conditions noted are these: read-out: % inhibition. The source holds these as a separate data set.
The target of data set [15] is T2, DENV2proHeLa NS2B-NS3 protease. Briefly: cell-based.
A short description of data set [16]: in vitro. On the set-up: species or system DENV2proHeLa (HeLa). To be noted: human, denv2prohela cells. The source holds these as a separate data set.
The target of data set [17] is T1, NS2B(H)-NS3pro (DENV-2 NS2B-NS3 protease). Briefly: biochemical. The conditions noted are these: read-out: % inhibition. This is another data set of the same source.
Data set [18] shares this target. Description: fluorometric protease assay, AMC substrate. The data set is classed as biochemical. To be noted: pH 7.5, HEPES, CHAPS; substrate Bz-nKRR-AMC.
Data set [19] has as its target T2, DENV2proHeLa NS2B-NS3 protease. Description: cell-based. On the set-up: species or system DENV2proHeLa (HeLa). To be noted: HeLa, read-out: % inhibition. The source holds these as a separate data set.
[20] abbreviates: read-out: DENV2proHeLa EC50, inhibitor.

Read-outs that look alike come from different tables or passages of the source.

T2 sequence (P29990 1476-2093 limits assumed): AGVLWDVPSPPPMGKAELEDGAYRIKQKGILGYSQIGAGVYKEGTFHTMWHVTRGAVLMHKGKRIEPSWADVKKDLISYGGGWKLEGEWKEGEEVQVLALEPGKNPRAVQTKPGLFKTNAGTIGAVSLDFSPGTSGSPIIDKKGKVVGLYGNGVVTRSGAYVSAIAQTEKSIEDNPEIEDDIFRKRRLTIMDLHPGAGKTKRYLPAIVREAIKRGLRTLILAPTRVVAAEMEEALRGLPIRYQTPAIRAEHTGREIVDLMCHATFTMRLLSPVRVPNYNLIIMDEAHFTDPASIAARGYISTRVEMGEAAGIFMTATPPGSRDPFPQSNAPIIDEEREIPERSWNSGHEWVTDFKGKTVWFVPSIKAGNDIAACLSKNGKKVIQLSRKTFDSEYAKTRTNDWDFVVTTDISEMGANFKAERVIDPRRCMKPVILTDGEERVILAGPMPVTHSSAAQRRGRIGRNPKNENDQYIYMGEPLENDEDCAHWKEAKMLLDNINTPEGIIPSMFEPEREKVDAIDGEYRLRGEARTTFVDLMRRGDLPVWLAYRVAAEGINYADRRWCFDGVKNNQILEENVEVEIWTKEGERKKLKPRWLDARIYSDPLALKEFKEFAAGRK
T2 sequence (P29990 1346-1475 partner limits assumed): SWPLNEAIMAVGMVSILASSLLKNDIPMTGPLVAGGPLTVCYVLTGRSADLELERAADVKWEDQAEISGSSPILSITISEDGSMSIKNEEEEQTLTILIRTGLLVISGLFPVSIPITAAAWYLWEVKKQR

The term inhibition denotes the percentage by which the read-out fell short of the control. With `CCCCCC(=O)N[C@H](C(=O)NCc1ccc(NC(=N)N)cc1)c1ccc(OCc2ccccc2)cc1` [NK-189], the results for the inhibition at 50 µM in [1] and in data set [2] were 95% and 97%, respectively. For the same compound, the inhibition at 25 µM in data set [3] came out at 21%.
With `CCCCCC(=O)N[C@H](C(=O)Nc1cccc(C(N)=O)c1)c1ccc(OCc2ccccc2)cc1` [compound 2], in [4], the inhibition at 50 µM was 64 ± 5.1%.
Broadly, the CC50 is the concentration at which the toxic effect on the cells reaches its halfway point. Higher therefore signals better tolerance by the cells. What is called IC50 is the concentration that inhibits the measured activity by half. For orientation: EC50 means the midpoint of the concentration-response curve. In data set [5], `CCCCC(CC)C(=O)N[C@H](C(=O)Nc1cccc(C(N)=O)c1)c1ccc(OCc2ccccc2)cc1` (stereo partly shown) [compound 20, 20] displayed a CC50 of more than 50 µM. Also, the inhibition at 25 µM in data set [3] came to 90%. Further, the inhibition at 12.5 µM in [6] was determined as 63%. For the same compound, the IC50 in [7] is 22 µM. In data set [8] (setting [20]), the EC50 was 11 µM.
Consider `NC(=O)c1cccc(NC(=O)[C@@H](NC(=O)C2COc3ccccc3C2)c2ccc(OCc3ccccc3)cc2)c1` (stereo partly shown) [compound 26, 26], for which the CC50 in data set [5] was more than 50 µM. The inhibition at 50 µM in data set [9] worked out at 88%. Further, in data set [6], the inhibition at 12.5 µM came to 77%. In [7], the IC50 is 16 µM. The compound also registered an EC50 in data set [8] of 6.8 µM.
In [10], `CC(C(=O)N[C@H](C(=O)Nc1cccc(C(N)=O)c1)c1ccc(OCc2ccccc2)cc1)c1ccccc1` (stereo partly shown) [compound 28, 28] gave an EC50 of 8 µM. The IC50 in [11] came out at 17 µM. Further, in [12], the CC50 was more than 50 µM. For the same compound, the inhibition at 12.5 µM in data set [13] is 77%. For the same compound, in [14], the inhibition at 50 µM came to 83%.
On to `Cc1onc(-c2ccc(F)cc2)c1C(=O)N[C@H](C(=O)Nc1cccc(C(N)=O)c1)c1ccc(OCc2ccccc2)cc1` [compound 29, 29], for which the IC50 in data set [11] stood at 14 µM. The compound also showed a CC50 in data set [12] of more than 50 µM. Besides, the inhibition at 12.5 µM in data set [13] was determined as 64%. Besides, in data set [14], the inhibition at 50 µM came to 82%.
`COc1cc(CC(=O)N[C@H](C(=O)Nc2cccc(C(N)=O)c2)c2ccc(OCc3ccccc3)cc2)cc(OC)c1OC` [compound 31]: in [10] (setting [20]), the EC50 was found to be 12 µM. Further, in data set [12], the CC50 was more than 50 µM. Further, in [3], the inhibition at 25 µM amounted to 11%. For the same compound, the inhibition at 12.5 µM in data set [13] was found to be 75%. Also, the inhibition at 50 µM in [4] was 76%.
As to `NC(=O)c1cccc(NC(=O)[C@@H](NC(=O)OCc2ccccc2)c2ccc(OCc3ccccc3)cc2)c1` [compound 36, 36], the response in data set [10] was half-maximal at 5 µM (EC50). In data set [11], the IC50 came out at 28 µM. The same compound showed a CC50 in data set [12] not below 50 µM. For the same compound, the inhibition at 12.5 µM in [13] was 60%.
For the compound `NC(=O)c1cccc(NC(=O)C(Cc2ccc(OCc3ccc4ccccc4c3)cc2)NC(=O)c2ccc(Oc3ccccc3)cc2)c1` (stereo not shown) [compound 63], the EC50 in data set [15] is 5.1 µM. Besides, it took 16 µM to reach half-maximal cytotoxicity in [16] (CC50). Further, the inhibition at 50 µM in data set [17] is 100%. In data set [18], this compound came in with an IC50 of 4.8 µM. Moreover, the inhibition at 12.5 µM in data set [19] is 82%.
In data set [16], `CC(C(=O)NC(Cc1c[nH]c2ccccc12)C(=O)Nc1cccc(C(N)=O)c1)c1ccc2c(c1)[nH]c1ccc(Cl)cc12` (stereo not shown) [compound 67, 67] returned a CC50 of 16 µM. Moreover, in data set [17], the inhibition at 50 µM is 91%. In [19], the inhibition at 12.5 µM is 91%.
In the case of `NC(=O)c1cccc(NC(=O)C(Cc2c[nH]c3ccccc23)NC(=O)c2ccc(Oc3ccccc3)cc2)c1` (stereo not shown) [compound 69, 69], the CC50 in data set [16] is more than 50 µM. In addition, in data set [17], the inhibition at 50 µM came out at 80%. In addition, the inhibition at 12.5 µM in [19] was 65%.

Source of the values: publication doi:10.1101/2024.06.05.597555v1 (biorxiv, 2024).
